Measurements taken from patent publication US20050106171A1, “METHODS AND COMPOSITIONS FOR TREATING EPILEPSY” (priority 2003, published 2005).

Tests used:
[1] = system: rats induced with cardiazol; experiment: Anti-seizure effect of rats induced with cardiazol; assay type: in vivo, Wistar rats; conditions: day 7, cardiazol 70 mg/kg subcutaneous 30 minutes after last dose; dosed twice daily for 1 week; 20 rats per group
Excerpt: Cardiazol induces seizure activity through intensifying excitatory synaptic activity of the brain. At the appropriate dose, cardiazol induces epileptic bursts that occur spontaneously.
An equal number of female and male Wistar rats that were […], weighing 200-220 g were provided by the Chinese Academy of Military Medical Sciences, Beijing, China. The rats were divided into four groups, each containing 20 rats: the test group (AY), the control yeast group (NY), the positive control group (CK2) and negative control group (CK1). Each rat in the test, control yeast and negative control groups was administered twice daily 0.6 ml of the activated yeast composition, the control yeast composition, and saline, respectively, for 1 week. Each mouse in the positive group was administered twice daily 0.04 g/kg (body weight) of phenobarbital (dissolved in 0.6 ml saline) for 1 week.
On day 7, 30 minutes after administering the last dosage of the above compositions, each group was administered by subcutaneous injection 70 mg/kg (body weight) of cardiazol (prepared as a 5% cardiazol solution in saline). The number of seizures occurred, incubation time (time between completion of injection and first seizure) and life span after injection was recorded immediately thereafter as shown in Table 3.

electroshocked mice = experiment: Anti-seizure effect on electroshocked mice; assay type: in vivo, Kunming mice; conditions: 70 mice per group, dosed twice daily
Excerpt: Electrodes are placed at the ears of the mice to provide instant stimulation through a strong electric currency. An appropriate electric currency induces an excessive surge of electrical activity in the brain resulting in seizures to occur.
Kunming grade healthy mice, which were 50-70 days old, weighing 18-22 g, were provided by the Institute of Zoology, Chinese Academy of Sciences, Beijing, China. The electroshock device (model GJ-2, manufactured by Medical Instrument Factory, Zhejiang Medical University) was adjusted to an output frequency of 60 Hz and voltage of 125 V. An equal number of male and female mice were selected. The ears of the mice were covered with saturated saline soaked-cotton. The electrodes were then clipped onto the ears of the mice. The mice were electroshocked three times for 0.3 seconds at an interval of 10 seconds. Mice with seizure activity were then divided into four groups, each group containing 70 mice: the test group (AY), the control yeast group (NY), the positive control group (CK2) and negative control group (CK1). Each mouse in the test, control yeast and negative control groups was administered twice daily 0.4 ml of the activated yeast composition, the control yeast composition, and saline, respectively, for 1 week. Each mouse in the positive control group was administered twice daily 15 mg/kg of phenobarbital for 1 week.
On each day, the mice were electroshocked once for 0.3 seconds. The number of mice with seizure activity were monitored as illustrated in Table 2.

CCC1(c2ccccc2)C(=O)NC(=O)NC1=O [CK2, phenobarbital]
incubation time (time between completion of injection and first seizure) [1]: 7.23 ± 5.32 min
life span after injection [1]: 22.76 ± 17.37 min
% mice anti-seizure (electroshocked mice; Day 1): 15.7%
No. mice with seizure activity (electroshocked mice; Day 1, intragastric, electroshocked once for 0.3 seconds each day): 59
% mice anti-seizure (electroshocked mice; Day 2): 31.4%
No. mice with seizure activity (electroshocked mice; Day 2): 48
% mice anti-seizure (electroshocked mice; Day 3): 20%
No. mice with seizure activity (electroshocked mice; Day 3): 56
% mice anti-seizure (electroshocked mice; Day 4): 21.4%
No. mice with seizure activity (electroshocked mice; Day 4): 55
% mice anti-seizure (electroshocked mice; Day 5): 17.1%
No. mice with seizure activity (electroshocked mice; Day 5): 58
% mice anti-seizure (electroshocked mice; Day 6): 12.8%
No. mice with seizure activity (electroshocked mice; Day 6): 61
% mice anti-seizure (electroshocked mice; Day 7): 12.9%
No. mice with seizure activity (electroshocked mice; Day 7): 61
